Earlier results as cited in US7163956B2, “Substituted fullerene compositions and their use as antioxidants” (C Sixty Inc., priority 2003, dated 2007).

Tested on: mice
Settings: oral administration, about 0.5 mg/kg/day

(C60(>C(COOH)2)3) [C3]
increase in mean survival relative to controls: ~20% | mean survival (controls 23.5+/−5.5 months, p=0.033): 28.7+/−3.3 months
